# Legend:
# [1] = method code SF-AS, from DOI: 10.1016/0378-5173(80)90061-7
# [2] = pH 13.0
# [3] = not given; remark: listed apart in the source
# [4] = method code SF-HPLC, from DOI: 10.1016/0378-5173(91)90200-8; conditions: pH 7.4
# [5] = method code SF-AS, from Lee, B.; Shin, J.; Lim, M.; Jang, T.; Park, J.; Kim, K.; Kang, W. (1997). Partition Property of 5-Nitrothiopyrimidine Nucleoside. Bull Korean Chem Soc, 18(7)734-736.; conditions: pH 7.0
# [6] = method code SF-AS, from DOI: 10.1016/0041-008x(67)90079-8
# [7] = not given; remark: listed apart in the source
# [8] = method code SF, from DOI: 10.1016/0006-2952(91)90449-f, PMID: 1930261; conditions: pH 2.0
# [9] = not given; remark: listed apart in the source
# [10] = method code SF, from DOI: 10.1515/znc-1979-1128; conditions: pH 7.4
# [11] = not given; remark: listed apart in the source
# [12] = from Wang, L.; Xu, L.; Xu, O.; Tian, L.; Zheng, Z. (1989). Simultaneous determination of partition coefficients and acid dissociation constants of some organic dibasic acids and diacidic bases in the …
# [13] = method code SF-HPLC, from DOI: 10.1016/0045-6535(86)90532-1; conditions: pH 6.5
# [14] = method code SF-GLC, from DOI: 10.1016/0166-445x(88)90052-5
# [15] = not given; remark: listed apart in the source
# [16] = method code SF-GLC, from DOI: 10.1002/jps.2600620103, PMID: 4734195
# [17] = not given; remark: listed apart in the source
# [18] = not given; remark: listed apart in the source
# [19] = method code HPLC, from DOI: 10.1016/j.bmcl.2004.01.062, PMID: 15026043; conditions: pH 5.5
# [20] = not given; remark: listed apart in the source
# [21] = not given; remark: listed apart in the source
# [22] = not given; remark: listed apart in the source
# [23] = method code HPLC, from DOI: 10.1016/j.ejmech.2015.05.022, PMID: 26005028; conditions: pH 7.1
# [24] = method code SF-AS, from DOI: 10.1016/j.ejmech.2011.02.056, PMID: 21420207
# [25] = method code SF-AS, from DOI: 10.1111/j.2042-7158.1989.tb06480.x, PMID: 2570831; conditions: pH 7.4
# [26] = not given; remark: listed apart in the source
structure (smiles),measurement,setting,value
COC(=O)CCCO,logP,[1],-0.06
COc1cc(NCc2ccc3nc(N)nc(N)c3c2C)cc(OC)c1OC,logD,[2],2.55
CCCC(C)O (stereo not drawn),logP,,1.34
ClC(Cl)(Cl)Cl,logP,[3],2.59
CCC(C(=O)OCc1ccc(COC(=O)C(CC)C(COC(C)=O)Cc2cncn2C)cc1)C(COC(C)=O)Cc1cncn1C (stereo not drawn),logD,[4],3.04
O=c1[nH]cc([N+](=O)[O-])c(=O)[nH]1,logD,[5],-1.38
Clc1cc(Cl)c(Cl)nc1Cl,logP,[6],3.32
CCCCOC(C)=O,logP,[7],1.69
CN1C(=O)NC(=O)C(=O)C1=O,logD,[8],-1.04
NC(=O)c1cssc1=S,logP,[9],0.3
CCOC(C)=O,logP,[7],0.53
c1ncncn1,logD,[10],-0.73
CC1=C(C)C(O)N(c2ccc(C)c(C)c2)C1=O (stereo not drawn),logD,[10],2.36
Clc1ccc(Cl)nc1,logP,[6],2.4
On1ccccc1=S,logP,[11],0.4
Nc1cccc(C(=O)O)c1,logP,[12],0.65
CCCCNC(=S)NCCCC,logD,[13],2.75
C1OC1C1CO1 (stereo not drawn),logP,[14],-0.28
C=CCBr,logP,[15],1.9
OCC(Cl)Cl,logP,[16],0.37
CC[C@H]1OC(=O)C[C@@H](O)[C@H](C)[C@@H](O[C@@H]2O[C@H](C)C[C@H](N(C)C)[C@H]2O)[C@@H](CC=O)C[C@@H](C)C(=O)/C=C/[C@]2(C)O[C@H]2[C@@H]1C,logP,[17],2.19
Clc1ccncc1,logP,[18],1.37
CN1C(=O)C(=O)C(=O)N(C)C1=O,logD,[8],-0.57
CC(C)OC(=O)C(Cc1ccc(OC(=O)N(C)C)cc1)NC(=O)C1N(S(=O)(=O)c2cnn(C)c2)CSC1(C)C (stereo not drawn),logD,[19],2.46
CCC(C(=O)OCc1ccc(COC(=O)C(CC)C(COC(=O)CC(=O)OC)Cc2cncn2C)cc1)C(COC(=O)CC(=O)OC)Cc1cncn1C (stereo not drawn),logD,[4],2.76
CC(C)=O,logP,[20],-0.17
CC[C@H]1OC(=O)[C@H](C)[C@@H](O[C@H]2C[C@@](C)(OC)[C@@H](O)[C@H](C)O2)[C@H](C)[C@@H](O[C@@H]2O[C@H](C)C[C@H](N(C)C)[C@H]2O)[C@](C)(O)C[C@@H](C)C(=O)[C@H](C)[C@@H](O)[C@]1(C)O,logP,[17],3.06
Nc1ccc([N+](=O)[O-])cn1,logP,[21],0.65
Nc1ccc(S(=O)(=O)NC(=O)c2ccccc2)cc1,logP,[22],1.46
CCCC,logP,[3],2.74
CCCCCCNC(=O)CBr,logD,[23],2.18
CCCCCCCC(=O)N[C@H]1C[C@H](O[C@H]2C[C@](O)(C(=O)CO)Cc3c(O)c4c(c(O)c32)C(=O)c2c(OC)cccc2C4=O)O[C@@H](C)[C@H]1O,logP,[24],1.81
Cn1cnc2c(N)ncnc21,logD,[25],-0.03
CC(O)C(F)(F)F (stereo not drawn),logP,[16],0.71
Nc1ncnc2[nH]cnc12,logD,[25],-0.05
C1CCCC1,logP,[26],2.8
CCCCCCCCCCCCCCCC(=O)N[C@H]1C[C@H](O[C@H]2C[C@](O)(C(=O)CO)Cc3c(O)c4c(c(O)c32)C(=O)c2c(OC)cccc2C4=O)O[C@@H](C)[C@H]1O,logP,[24],2.19
Fc1ccccc1,logP,[20],2.01

# Reference: the SangsterLogP compilation
